Measured values published in paper PMC8279484 (Journal of Medicinal Chemistry, 2021).
Like-named read-outs stand apart in the source and are kept apart here. Each block holds one molecule with its values, some of them ahead of it.

Legend:
IFNγ = assay: LPS-induced IFNγ release from THP-1 Lucia monocytes (multiplex electrochemiluminescence); assay type: cell-based, human; conditions: for IC50: Homo sapiens, THP-1; for IC50 / Imax, IFNγ release: LPS 50 ng/mL, 24 h; for Imax, IFNγ release: concentration–response
Protocol: (§1) LXA41 and all of the tested sLXms were dissolved in ethanol and further diluted in a culture medium (final ethanol concentration 0.1%; equivalent concentrations were used as the vehicle control). Prior to in vitro experiments, THP-1-Lucia NF-κB cells were harvested and plated at 1 × 10^5 cells/well on 96-well plates and left to settle in the incubator at 37 °C, 95% humidity, and 5% CO2, in 0.1% FBS-containing media, pretreated for 30 min with increasing doses of LXA41, sLXms (from 10^–12 to 10^–6 M), or appropriate controls, followed by stimulation with 50 ng/mL LPS for 24 h. Untreated (Unt) or vehicle-treated (Veh) cells were used as negative controls; 1 pM (1R)-5, the (1R)-epimer of the benzo-mimetic, was used as a positive control for any aromatic mimetic; and, finally, we compared the observed effects to the conventional glucocorticoid dexamethasone (Dex) treatment, at 1 μM.
After 24 h of exposure to LXA41, sLXms, or vehicle, followed by LPS stimulation (50 ng/mL), as described above, THP-1-Lucia NF-κB-cell supernatants were collected and cleared by centrifugation. Concentrations of IFN-γ, IL-1β, IL-6, IL-8, IL-10, IL-12p70, and TNF-α in culture supernatants were assessed by electro-chemi-luminescent detection, using a commercially available human 96-well plate “multiplex” (several analytes in the same well) kit for tissue culture samples, according to the manufacturers’ guidelines.
The “coding” of the heat-map indicates the arbitrary criteria to assign points to each single PD component (efficacy = Imax or Emax; potency = IC50 or EC50; slope = HS) to generate a final (aggregate) relative PD score. If a single PD component was greater than the reference level (x > 1), then the single-component relative score was arbitrarily set to +1 (light green) or +2 (dark green). If a single PD component was equal to the reference level (x = 1), then the single-component relative score was arbitrarily set to 0 (gray). If a single PD component was smaller than the reference level (x < 1), then the single-component relative score was arbitrarily set to −1 (light red) or −2 (dark red). If the curve of a single PD component was best fitting to a flat line (x = 0), then the single-component relative score was arbitrarily set to −4 (purple) (Table S1).

NF-κB = assay: LPS-induced NF-κB-driven luciferase gene reporter assay in THP-1 Lucia monocytes; assay type: cell-based, human; conditions: for Rel. Slope: HS relative to LXA4 (1); for IC50: Homo sapiens, THP-1; for Potency Rel. Pot.: IC50 relative to LXA4 (1); for Efficacy Rel. Eff.: Imax relative to LXA4 (1); for Imax (%): maximal % inhibition of LPS (50 ng/mL)-stimulated NF-κB luciferase activity, 30 min pretreatment; for Imax (%) / reduction of LPS-induced NF-κB-driven luciferase activity: 1 pM–1 μM; for (Single component) Rel. Score: Rel. Pot. / (Single component) Rel. Score: Rel. Sl.: score relative to LXA4 (1); for reduction of LPS-induced NF-κB-driven luciferase activity: approximate extent; for Slope HS (Hill–Slope): slope of concentration–response curve; for (Aggregate) Rel. PD Score: sum of efficacy, potency, slope scores relative to LXA4 (1)
Protocol: Mycoplasma-free THP-1-Lucia NF-κB cells were grown in an RPMI 1640 (Gibco) medium containing 2 mM L-glutamine, 1.50 g/L sodium bicarbonate, 4.50 g/L glucose, 10 mM N-(2-hydroxyethyl)piperazine-N′-ethanesulfonic acid (HEPES), and 1 mM sodium pyruvate. Then, 10% heat-inactivated fetal bovine serum (FBS) (30 min at 56 °C), 100 μg/mL Normocin, and Pen-Strep (50 U/mL to 50 μg/mL) were also added to the growth media. As THP-1-Lucia cells were resistant to Zeocin, the latter was used as a selective antibiotic (a high dose, i.e., 100 μg/mL, was alternated every 2 weeks with a low dose, i.e., 10 μg/mL).
as §1, with “h.” for “h. Untreated (Unt) or vehicle-treated (Veh) cells were used as negative controls; 1 pM (1R)-5, the (1R)-epimer of the benzo-mimetic, was used as a positive control for any aromatic mimetic; and, finally, we compared the observed effects to the conventional glucocorticoid dexamethasone (Dex) treatment, at 1 μM.”
NFκB activity was monitored in the human THP-1 monocytic leukemia cell line containing a stably integrated NF-κB-inducible Lucia reporter construct (as previously reported).[21] When stimulated with LPS, the transcription factor NF-κB is activated, upregulating the synthesis of proinflammatory mediators, thus bringing about an inflammatory response. In these cells, NF-κB activation is linked to a […] luciferase gene and can be measured using luminescence.
Heat-killed listeria monocytogenes (HKLM) (10^8/mL) was used as a positive control.[28] The levels of NF-κB-induced Luciferase were then measured in a culture supernatant using QUANTI-Luc as the detection reagent, and measurements were taken on a bioluminescence reader.
After 24 h, the levels of NF-κB-induced Lucia were assayed in a cell culture supernatant using QUANTI-Luc, as a detection reagent, on a bioluminescence reader (Synergy HT, BioTek Instruments, Inc. Vermont). Aliquots of the supernatant were retained for subsequent cytokine and LDH assays. Cellular proteins were extracted with a radioimmunoprecipitation assay (RIPA) buffer (Thermo Fisher, Ireland), supplemented with protease inhibitors (Sigma-Aldrich, Ireland). Lysates were clarified by centrifugation (3200g, 10’, 4 °C) to remove cell debris, and the cell protein level was quantified by performing a bicinchoninic acid (BCA) assay (as per the manufacturer’s instructions) reading the protein absorbance at 570 nm, using a spectrophotometer (SPECTRAMAX M2, Molecular Devices (U.K.) Limited). A “relative luminescence unit” (RLU) was obtained using the average value of the lum/abs ratio of two replicates.
The “coding” of the heat-map indicates the arbitrary criteria to assign points to each single PD component (efficacy = Imax or Emax; potency = IC50 or EC50; slope = HS) to generate a final (aggregate) relative PD score. […] If a single PD component was equal to the reference level (x = 1), then the single-component relative score was arbitrarily set to 0 (gray). If a single PD component was smaller than the reference level (x < 1), then the single-component relative score was arbitrarily set to −1 (light red) or −2 (dark red). If the curve of a single PD component was best fitting to a flat line (x = 0), then the single-component relative score was arbitrarily set to −4 (purple) (Table S1).

[1] = LPS 50 ng/mL, 24 h, read-out: Potency IC50

IC50 (IFNγ): 1 pM | IC50 (NF-κB; LPS 50 ng/mL, 24 h, read-out: IC50): 25 pM
SMILES: CCCCC[C@@H](O)c1nc2ccccc2nc1/C=C/[C@@H](O)[C@@H](O)CCCC(=O)OC [(R)-6, Methyl (5S,6R,E)-5,6-Dihydroxy-8-(3-((R)-1-hydroxyhexyl)quinoxalin-2-yl)oct-7-enoate]
Imax, IFNγ release (IFNγ): 62 ± 1% | Rel. Slope (NF-κB): 57 | Potency Rel. Pot. (NF-κB): 2.4 | Efficacy Rel. Eff. (NF-κB): 1.58 | Imax (%) (NF-κB; 24 h): 38 ± 9% | (Single component) Rel. Score: Rel. Pot. (NF-κB): 1 (1 < x < 5) | (Single component) Rel. Score: Rel. Sl. (NF-κB): 2 (x ≥ 10)

IC50 (IFNγ): 1 pM
SMILES: CCCCC[C@H](O)/C=C/C=C\C=C\C=C\[C@@H](O)[C@@H](O)CCCC(=O)O [Compound 1, LXA4]
Imax, IFNγ release (IFNγ): 72 ± 4% | Rel. Slope (NF-κB): 1 | Potency Rel. Pot. (NF-κB): 1 | Efficacy Rel. Eff. (NF-κB): 1 | Imax (%) (NF-κB; 24 h): 24 ± 1%

Continued, molecule first:

SMILES: CCCCC[C@@H](O)c1nc2ccccc2nc1/C=C/[C@H]1OC(C)(C)O[C@H]1CCCC(=O)OC [(R)-17, Methyl 4-((4S,5R)-5-((E)-2-(3-((R)-1-Hydroxyhexyl)quinoxalin-2-yl)vinyl)-2,2-dimethyl-1,3-dioxolan-4-yl)butanoate]
Rel. Slope (NF-κB): 0 | IC50 (NF-κB; [1]): 1 pM | Potency Rel. Pot. (NF-κB): 60 | Efficacy Rel. Eff. (NF-κB): 0.75 | reduction of LPS-induced NF-κB-driven luciferase activity (NF-κB): least effective | Imax (%) (NF-κB; 24 h): 18 ± 7% | (Single component) Rel. Score: Rel. Pot. (NF-κB): 2 (x ≥ 5) | (Single component) Rel. Score: Rel. Sl. (NF-κB): -4 (x = 0) | Slope HS (Hill–Slope) (NF-κB): 0 | (Aggregate) Rel. PD Score (NF-κB): -3

SMILES: CCCCCCC[C@H](O)c1nc2ccccc2nc1/C=C/[C@@H](O)[C@@H](O)CCCC(=O)OC [(S)-8, Methyl (5S,6R,E)-5,6-Dihydroxy-8-(3-((S)-1-hydroxyoctyl)quinoxalin-2-yl)oct-7-enoate]
PD score, IFNγ release (IFNγ; relative to LXA4 (1)): negative PD scores | Rel. Slope (NF-κB): 0 | IC50 (NF-κB; [1]): 10 pM | Potency Rel. Pot. (NF-κB): 6 | Efficacy Rel. Eff. (NF-κB): 0.96 | IC50 (range in words) (NF-κB; LPS 50 ng/mL, 24 h): “pM” range | reduction of LPS-induced NF-κB-driven luciferase activity (NF-κB): 10–20% | Imax (%) (NF-κB; 24 h): 23 ± 8% | (Single component) Rel. Score: Rel. Pot. (NF-κB): 2 (x ≥ 5) | (Single component) Rel. Score: Rel. Sl. (NF-κB): -4 (x = 0) | Slope HS (Hill–Slope) (NF-κB): 0 | (Aggregate) Rel. PD Score (NF-κB): -2

SMILES: CCCCC[C@@H](O)c1c(/C=C/[C@@H](O)[C@@H](O)CCCC(=O)OC)nc(C)n1C [Compound 5, imidazolo-LXA4]
Rel. Slope (NF-κB): -9 | Potency Rel. Pot. (NF-κB): 300 | Efficacy Rel. Eff. (NF-κB): 1.83 | Imax (%) (NF-κB; 24 h): 44 ± 9% | (Single component) Rel. Score: Rel. Pot. (NF-κB): 2 (x ≥ 5) | (Single component) Rel. Score: Rel. Sl. (NF-κB): 1 (1 < x < 10) | Slope HS (Hill–Slope) (NF-κB): 90 | (Aggregate) Rel. PD Score (NF-κB): 5
